# Results as given in ChEMBL document CHEMBL3507680, “University of Dundee, Gates Library screen for HepG2 cell viability”.
# Assay: Human HepG2 cell viability assay in 384 well format
# Format: toxicity, cell-based
# Design: dose 125 nL, time 70.5 hour; concentration not given beside the values
# Details: HepG2 cells, read-out: Inhibition
row,SMILES,cytotoxicity at 70.5 h
1,CS(=O)(=O)N1CCCC1Cn1cccn1 (stereo unspecified),2.44%
2,CC1(C)CNC(=O)c2nc(C3CCCN(C(=O)C4CC4)C3)[nH]c2C1 (stereo unspecified),-7.49%
3,CC(=O)NCC1CCN(C(=O)c2c[nH]c3cc(Cl)ccc23)CC1,-10.5%
4,COC[C@@]12CCO[C@@H]1CCN(C(=O)C1CCOCC1)C2,-11.6%
5,O=C(CN1CCOCS1(=O)=O)NCCc1ccc(Cl)cc1,-9.99%
6,CCc1nnc2n1CCN(Cc1csc(-c3ccccc3F)n1)C2,-7.77%
7,Cc1cc(C(=O)N2CCC3(CC2)CC(c2cccnc2)C(=O)N3)no1 (stereo unspecified),1.95%
8,OC(CN(Cc1ccccc1)Cc1cscn1)c1cccs1 (stereo unspecified),-2.62%
9,CCN(C)CC(=O)N1CCCC(c2nnc(CN3CCOCC3)n2C)C1 (stereo unspecified),-4.67%
10,CC(=O)N1CCn2c(nnc2C2CCCCN2Cc2ccccc2Cl)C1 (stereo unspecified),-3.34%
11,CCN1CC(COc2ccccc2)Oc2ncccc2S1(=O)=O (stereo unspecified),-3.66%
12,CCc1nn2c(=N)c(C#N)n[nH]c2c1-c1ccc(OC)cc1,-18.3%
13,Cc1cc(C)n(-c2cncc(N3CCN(C(=O)C(C)C)CC3)n2)n1,-4.92%
14,COCC(C)N(C)C(=O)c1nc(S(C)(=O)=O)n2ccccc12 (stereo unspecified),-0.102%
15,CN1CCOC(C(=O)Nc2nc(-c3ccc(Cl)cc3)n[nH]2)C1 (stereo unspecified),4.4%
16,O=C(c1n[nH]c(=O)c2ccccc12)N1CCCC1Cn1cccn1 (stereo unspecified),-8.16%
17,CC(=O)N1CCc2nc(N(C)C)nc(NCCc3ccccc3)c2CC1,-9.06%
18,CN(C)CC(=O)N1CCc2sc(C(=O)N3CCOCC3)cc21,-0.909%
19,Cn1cnc2c1C(COCC1CC1)CN(C(=O)c1cscn1)C2 (stereo unspecified),-5.14%
20,O=C(NC1CCS(=O)(=O)c2ccccc21)c1sccc1C1CC1 (stereo unspecified),-7.25%
21,CC(C)(CNC(=O)c1ccco1)CNC(=O)c1ccco1,-1.35%
22,CC(=O)Nc1nc(C(=O)N2CCCCC2Cn2cc(C)cn2)cs1 (stereo unspecified),5.83%
23,Cc1ncc(COc2cccc3c2NC(=O)CO3)s1,14.5%

row,SMILES,cytotoxicity at 70.5 h
1,Cn1ccc(C(=O)N(CC(F)F)c2cccc(Cl)c2)cc1=O,-2.11%
2,Cc1cc(N2CCCC2)nc(N(C)CCO)c1C#N,-9.55%
3,Cc1nc(COC[C@@]23CCC[C@@H]2CN(Cc2nccs2)C3)cs1,-7.37%
4,COc1ccc(-c2n[nH]c(C)c2CC(=O)NCC2CCCO2)cc1 (stereo unspecified),20.6%
5,COCCN1CCC2(CCN(CC3CC3)CC2)C1=O,-2.3%
6,CN(C)S(=O)(=O)c1ccc(CN2CCCC2c2ccccc2)o1 (stereo unspecified),32.6%
7,CCCC(=O)N1CCCCC1c1nc(N(C)C)ncc1-c1cc(C)no1 (stereo unspecified),-2.48%
8,CS(=O)(=O)c1ccc(NC(=O)NCc2ccc(F)cc2)cn1,-0.885%
9,CCCN1CCC(CC(=O)NCc2cc(C)nn2C)CC1,-7.34%
10,Cc1nc[nH]c1CN1CCCC12CCN(c1nc3ccccc3s1)CC2,-1.37%
11,O=C(c1cccnc1)N1CCCC2(CCN(c3ccsc3)C2=O)C1 (stereo unspecified),13.9%
12,Cc1cc(NCCO)nc(N2CCCC2)c1C#N,2.8%
13,COc1cc(CN2CCC3(CC(Nc4ccncn4)C3)C2)cc(OC)c1 (stereo unspecified),0.186%
14,c1ccc(CCc2noc(CN3CCC(N4CCSCC4)CC3)n2)cc1,-2.58%
15,COc1cc(F)ccc1C(C(=O)O)N(C)CCN1CCCC1 (stereo unspecified),12.1%
16,COc1ncccc1C(=O)NCCn1nc(C)ccc1=O,-8.68%
17,CCS(=O)(=O)Nc1ccn(Cc2cccc(Cl)c2)n1,-4.96%
18,CN1CCN(Cc2cn3c(n2)CN(Cc2ccncc2)CC3)CC1,14%
19,N#Cc1c(F)cccc1N1CCN(C(=O)Nc2nncs2)CC1,11.5%
20,O=C(c1ccccc1)N1CCOC2CNCC[C@H]21 (stereo partly specified),-7.04%
21,CN1CCC(CN2CCC3(CCCN(Cc4ccoc4)C3)C2=O)CC1 (stereo unspecified),-10.7%
22,COCCN1C(=O)CC[C@]12CC[C@@H](NCc1ccc(OC)cc1)CC2,0.729%
23,CCn1ncc2c1C(COCC1CC1)CN(S(=O)(=O)N(C)C)C2 (stereo unspecified),-7.75%
